Where “and” joins values, the source holds several entries; their conditions need not be identical. Identical values can stand only once.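 A five-concentration, 48-hour dose response in 96-well plates underlies each endpoint, interpolated linearly between surrounding concentrations. GI50 = concentration required for 50% inhibition of growth. TGI is the concentration that stops growth completely.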
Key:
Test in all cases: NCI tumour cell line growth inhibition, 48 h
SF-539 CNS = test system: SF-539 CNS
OVCAR-5 ovarian = test system: OVCAR-5 ovarian
UO-31 renal = test system: UO-31 renal
M14 melanoma = test system: M14 melanoma
HS 578T breast = test system: HS 578T breast
HOP-62 NSCLC = test system: HOP-62 NSCLC
ACHN renal = test system: ACHN renal
HCT-116 colon = test system: HCT-116 colon
SN12C renal = test system: SN12C renal
SF-268 CNS = test system: SF-268 CNS
U251 CNS = test system: U251 CNS
HCT-15 colon = test system: HCT-15 colon
SR leukemia = test system: SR leukemia
HCC-2998 colon = test system: HCC-2998 colon

SMILES	TGI (SF-539 CNS)	TGI (OVCAR-5 ovarian)	TGI (UO-31 renal)	TGI (M14 melanoma)	TGI (HS 578T breast)	TGI (HOP-62 NSCLC)	TGI (ACHN renal)	TGI (HCT-116 colon)	TGI (SN12C renal)	TGI (SF-268 CNS)	TGI (U251 CNS)	TGI (HCT-15 colon)	TGI (SR leukemia)	TGI (HCC-2998 colon)	GI50 (HS 578T breast)	GI50 (SN12C renal)	GI50 (U251 CNS)	GI50 (HCT-15 colon)	GI50 (SF-268 CNS)	GI50 (HCC-2998 colon)
CCOC(=O)C1(C/C=C\CBr)CCCC1=O (stereo not given)	44.9 µM	> 100 µM	59.5 µM	75.1 µM	> 100 µM	56.7 µM	56.5 µM	40 µM	40.1 µM	> 100 µM	48.7 µM	66.5 µM	–	–	–	–	–	–	–	–
COc1ccc(-c2c(C3=NCCCN3)nnn2-c2ccccc2)cc1	> 100 µM	> 100 µM	> 100 µM	> 100 µM	–	> 100 µM	> 100 µM	> 100 µM	> 100 µM	> 100 µM	> 100 µM	> 100 µM	> 100 µM	> 100 µM	–	–	–	–	–	–
COc1cc([C@@H]2c3cc4c(cc3[C@@H](Nc3ccc(NC(=O)c5cc([N+](=O)[O-])cn5C)cc3)[C@H]3COC(=O)[C@H]23)OCO4)cc(OC)c1O	0.446 µM and 0.414 µM	10.4 µM	0.841 µM and 0.825 µM	2.47 µM and 4.94 µM	> 100 µM	0.174 µM and 0.127 µM	0.484 µM and 0.164 µM	> 100 µM and 10 µM	0.262 µM and 0.437 µM	> 33.5 µM	> 57.5 µM	1.54 µM and 2.48 µM	–	0.8 µM and 0.872 µM	2.11 µM and 0.756 µM	0.0231 µM and 0.055 µM	0.0436 µM and 0.337 µM	0.192 µM	–	–
Cc1[nH]n(-c2nc3c(c(=O)[nH]2)CCCC3)c(=O)c1CCO	> 100 µM	> 100 µM	> 100 µM	> 100 µM	> 100 µM	> 100 µM	> 100 µM	> 100 µM	> 100 µM	> 100 µM	> 100 µM	> 100 µM	–	> 100 µM	–	–	–	–	–	–
Cn1c(CNc2ccc(-c3n[nH]c(=S)n3C)cc2)n[nH]c1=S	> 100 µM	> 100 µM	> 100 µM	> 100 µM	–	> 100 µM	> 100 µM	> 100 µM	> 100 µM	> 100 µM	> 100 µM	> 100 µM	–	> 100 µM	–	–	–	–	–	–
CCCCCCCCOCC(COC(=O)CCCCCCC)OC(=O)CCCCCCC (stereo not given)	–	> 100 µM	> 100 µM	> 100 µM	–	> 100 µM	> 100 µM	> 100 µM	> 100 µM	> 100 µM	> 100 µM	> 100 µM	> 100 µM	> 100 µM	–	–	–	–	–	–
CCOC(=O)/C(=C/c1ccccn1)C(=O)c1ccccc1	31 µM	33.5 µM	30 µM	29.3 µM	–	33 µM	> 56.2 µM	27.3 µM	27.2 µM	44 µM	27.4 µM	29.3 µM	14.2 µM	31.3 µM	–	–	–	–	–	–
O=C1CC(c2ccc(Cl)cc2)=Nc2ccccc2N1	> 100 µM	> 100 µM	> 100 µM	> 100 µM	–	> 100 µM	> 100 µM	59.6 µM	> 100 µM	> 100 µM	75.6 µM	> 100 µM	> 100 µM	> 100 µM	–	–	–	–	–	–
COc1cc(C2c3cc4c(cc3OC(NN)C2C)OCO4)cc(OC)c1O (stereo not given)	45.4 µM	> 100 µM	61.8 µM	> 100 µM	–	–	–	20.1 µM	62.2 µM	> 100 µM	33.5 µM	34.2 µM	–	29.6 µM	–	–	–	–	–	–
O=S(=O)(/N=C(\NO)Nc1ccc(Cl)cc1)c1cc(C(F)(F)F)cc(C(F)(F)F)c1	46.6 µM	30.1 µM	–	32.1 µM	60.5 µM	36.9 µM	31.3 µM	31.2 µM	32.1 µM	50.7 µM	31.4 µM	38.7 µM	–	–	–	–	–	–	–	–
CSc1nncc(-c2cc3c(c(SC)n2)CCCC3)n1	> 100 µM	> 100 µM	> 100 µM	> 100 µM	–	> 100 µM	> 100 µM	> 100 µM	> 100 µM	> 100 µM	> 100 µM	> 100 µM	> 100 µM	> 100 µM	–	–	–	–	–	–
CC(C)(CN1CCCCC1)C(=O)/C=C/c1ccc(Br)cc1	4.96 µM	11.8 µM	> 24.7 µM	4.75 µM	–	9.82 µM	14.5 µM	8.08 µM	7.66 µM	7.08 µM	8.11 µM	> 24.7 µM	7.68 µM	31.7 µM	–	–	–	–	–	–
COc1ccc2ccccc2c1C1=NC(C)(C)CO1	> 100 µM	–	> 100 µM	> 100 µM	–	> 100 µM	> 100 µM	> 100 µM	> 100 µM	> 100 µM	> 100 µM	> 100 µM	> 100 µM	–	–	–	–	–	–	–
NC1=NC2(COC(c3ccccc3)(c3ccccc3)c3ccccc3)OC(COC(c3ccccc3)(c3ccccc3)c3ccccc3)C(O)C2O1 (stereo not given)	> 100 µM	> 100 µM	> 100 µM	> 100 µM	–	> 100 µM	> 100 µM	> 100 µM	> 100 µM	–	> 100 µM	> 100 µM	> 100 µM	–	–	–	–	–	–	–
O=C1CC(c2cccc(Cl)c2)Nc2ccc(N3CCCC3)cc21 (stereo not given)	–	–	50.7 µM	> 100 µM	–	> 100 µM	> 100 µM	–	0.0151 µM	> 100 µM	> 100 µM	> 100 µM	–	0.0611 µM	–	–	–	0.0329 µM	0.0417 µM	0.0148 µM
COC(=O)[C@@]12OC[C@]34C([C@@H](O)C1O)[C@@]1(C)CC(=O)C(OC(=O)CC(C)C(F)(F)F)=C(C)C1C[C@H]3OC(=O)[C@H](O)[C@H]42 (stereo not given in full)	10.9 µM	> 62.5 µM	> 62.5 µM	9.76 µM	–	> 62.5 µM	> 62.5 µM	> 62.5 µM	21.2 µM	56.8 µM	> 62.5 µM	> 62.5 µM	19.9 µM	11 µM	–	–	–	–	–	–
COC(=O)C(C(=O)C(=O)Nc1c(Cl)cc([N+](=O)[O-])cc1Cl)c1csc(-n2nc(C3=CCCCC3)cc2-c2ccccc2)n1 (stereo not given)	> 100 µM	> 100 µM	> 100 µM	> 100 µM	–	> 100 µM	> 100 µM	> 100 µM	> 100 µM	> 100 µM	> 100 µM	> 100 µM	78 µM	> 100 µM	–	–	–	–	–	–
NC1=NC(Cn2nc(-c3ccccc3)c3ccccc3c2=O)=NNC(=O)N1	> 100 µM	> 100 µM	> 100 µM	> 100 µM	–	> 100 µM	> 100 µM	> 100 µM	> 100 µM	> 100 µM	> 100 µM	> 100 µM	> 100 µM	> 100 µM	–	–	–	–	–	–

From PubChem BioAssay (NCI)
